Among the data in article PMC10893631, “Receptor-based pharmacophore modeling, molecular docking, synthesis and biological evaluation of novel VEGFR-2, FGFR-1, and BRAF multi-kinase inhibitors” (BMC Chemistry, 2024) are inhibition values, retold here.

For one experiment, the target named is T1, VEGFR-2 (Homo sapiens, UniProt P35968).
T1 construct: purchased BPS Biosciences 40325
Description: VEGFR-2 kinase assay kit (BPS), Kinase-Glo Max luminescence. Type of experiment: biochemical. The following applies: VEGFR-2, single dose 10 µM, duplicate, mean ± SD. Here is the method: 2. Biochemical kinase assay procedure
The inhibitory activity against different kinases was determined using kinase kits […]
from BPS Biosciences and kinase-Glo Max luminescence kinase assay kit (Promega).
The assay was carried out according to the protocol provided by the manufacturer. A stock solution of the synthesized derivatives in 100% DMSO was prepared. Subsequently, the compounds were diluted to 10% DMSO.
A master mixture was prepared according to the number of wells. For VEGFR-2 and FGFR-1 biochemical assays each well include 6 μl of 5x Kinase Buffer 1 + 1 μl of 500 μM ATP + 1 μl of PTK Substrate (Poly-Glu,Tyr 4:1) (10 mg/ml) + 17 μl of distilled water. For BRAF assay each well include 6 μl of 5x Kinase Buffer 1 + 1 μl of ATP (500 μM) + 10 μl of 5X Raf substrate + 8 μl of distilled water. 1x Kinase buffer 1 was prepared by mixing 600 μl of 5x Kinase Buffer 1 with 2400 μl water to give 3 mL. Kinases were thawed on ice and were diluted with 1x Kinase Buffer 1.
To start the biochemical reaction, 25 µL of the master mixture was added to each well in 96 well plate. 5 µL of 10% DMSO was added to positive control wells and blank wells. 5 µL of diluted inhibitor was added to each well labelled with the test inhibitor so that the final concentration of DMSO is 1% in all reactions. Then 20 µL of (1 ng / μl) in case of VEGFR-2 and FGFR-1 or (2.5 ng/μl) in case of BRAF in 1x kinase buffer was added to positive control wells and wells labelled with the inhibitor, while 20 µL 1x kinase buffer 1 was added to the […]
The plate was incubated at 30 °C for 45 min. Subsequently, 50 μl of Kinase-Glo Max luminescence reagent was added to each well and the plate was covered with aluminum foil and incubated at room temperature 15 min. Finally, the luminescence was recorded using multimode microplate reader. Kinase activity assays were performed in duplicate at each […]
The luminescence data were analyzed as follows. The difference between luminescence intensities in the absence of kinase (Lut) and in the presence of kinase (Luc) was defined as 100 % activity (Lut – Luc). Using luminescence signal (Lu) in the presence of the compound, % activity was calculated as: % activity = {(Lut - Lu)/(Lut - Luc)}×100%. The […]
concentration of the test compounds required to reduce the kinase activity by 50% was determined from dose-response curves and recorded as their IC50. […]

For experiment [1], the system named is NCI panel of 60 tumor cell lines. Kind of experiment: NCI SRB growth inhibition, whole panel mean (single dose 10 µM / five-dose). Type of experiment: cell-based, human. The following applies: Homo sapiens, 10 µM. Here is the method:
(§1) Screening of cytotoxic activity against a panel of sixty human tumor cell lines The selected compounds by NCI were evaluated for their anticancer activity in a two- stage process. […] Then, the output from the single dose screen is reported as a mean graph. […] Assay protocol. […] For a typical screening experiment, cells are inoculated into 96 well microtiter plates in 100 µL at plating densities ranging from 5000 to 40,000 cells/well depending on the doubling time of individual cell lines. […] After 24 h, two plates of each cell line are fixed in situ with TCA, to represent a measurement of the cell population for each cell line at the time of drug addition (Tz). The experimental drugs are solubilized in dimethyl sulfoxide at 400-fold the desired final maximum test concentration and stored frozen prior to use. At the time of drug addition, an aliquot of frozen concentrate is thawed and diluted to twice the desired final maximum test concentration with complete medium containing 50 µg/mL gentamicin. Additional four, 10-fold or ½ log serial dilutions are made to provide a total of five drug concentrations plus control. Aliquots of 100 mL of these different drug dilutions are added to the appropriate microtiter wells already containing […] of medium, resulting in the required final drug concentrations. […] For adherent cells, the assay is terminated by the addition of cold TCA. […] The supernatant is discarded, and the plates are washed five times with tap water and air dried. Sulforhodamine B (SRB) solution ([…]) at 0.4% (w/v) in 1% acetic acid is added to each well, and plates are incubated for 10 min at room temperature. After staining, unbound dye is removed by washing five times with 1% acetic acid and the plates are air dried. […] Using the seven absorbance measurements [time zero, (Tz), control growth, (C), and test growth in the presence of drug at the five concentration levels (Ti)], the percentage growth is calculated at each of the drug concentrations levels. Percentage growth inhibition is calculated as: [(Ti Tz)/(C–Tz)] x 100 for concentrations for which Ti>/=Tz and [(Ti-Tz)/Tz] x 100 for concentrations for which Ti < Tz. Three dose response parameters are calculated for each experimental agent. […] The drug concentration resulting in total growth inhibition (TGI) is calculated from Ti = Tz. […] Values are calculated for each of these three parameters if the level of activity is reached; however, if the effect is not reached or is exceeded, the value for that parameter is expressed as greater or less than the maximum or minimum concentration tested.

Another experiment relates to COLO 205. Description: NCI SRB growth inhibition (single dose 10 µM / five-dose). It counts as cell-based, human. The following applies: Homo sapiens; COLO 205 (Colon cancer), 10 µM; read-out: GI%. The protocol:
as §1

A further experiment concerns DU-145. The experiment is described as above. It counts as cell-based, human. The following applies: Homo sapiens; DU-145 (Prostate cancer), 10 µM; read-out: GI%. The protocol: as §1
The next experiment has as its system EKVX. The description is as above. Type of experiment: cell-based, human. The note with it: Homo sapiens; EKVX (Non-small cell lung cancer), 10 µM; read-out: GI%. The protocol: as §1
Another experiment deals with HOP-92. The experiment is described as above. The note with it: Homo sapiens; HOP-92 (Non-small cell lung cancer), 10 µM; read-out: GI%. It counts as cell-based, human. The protocol: as §1
The subject of a further experiment is KM12. The experiment is described as above. The following applies: Homo sapiens; KM12 (Colon cancer), 10 µM; read-out: GI%. Type of experiment: cell-based, human. The protocol:
as §1

A further experiment relates to MDA-MB-468. Described as above. The following applies: Homo sapiens; MDA-MB-468 (Breast cancer), 10 µM; read-out: GI%. Type of experiment: cell-based, human. Here is the method:
as §1

In a further experiment the test system is NCI-H460. The description is as above. It counts as cell-based, human. The note with it: Homo sapiens; NCI-H460 (Non-small cell lung cancer), 10 µM; read-out: GI%. Here is the method:
as §1

A further experiment concerns NCI-H522. The experiment is described as above. The note with it: Homo sapiens; NCI-H522 (Non-small cell lung cancer), 10 µM; read-out: GI%. It counts as cell-based, human. Here is the method:
as §1

For the next experiment, the system named is SNB-75. Described as above. The following applies: Homo sapiens; SNB-75 (CNS cancer), 10 µM; read-out: GI%. It counts as cell-based, human. The protocol:
as §1

The next experiment deals with U251. The description is as above. It counts as cell-based, human. The note with it: Homo sapiens, U-251; U251 (CNS cancer), 10 µM; read-out: GI%. Here is the method: as §1
Where [2] appears, read: mean over NCI 60 cell lines, > 100% = lethal effect, read-out: mean growth inhibition % (GI%).
Where [3] appears, read: mean over NCI panel of 60 tumor cell lines, read-out: Mean growth inhibition %.

Where two headings read alike, the source gives them in different places.

T1 sequence (P35968 20-1356): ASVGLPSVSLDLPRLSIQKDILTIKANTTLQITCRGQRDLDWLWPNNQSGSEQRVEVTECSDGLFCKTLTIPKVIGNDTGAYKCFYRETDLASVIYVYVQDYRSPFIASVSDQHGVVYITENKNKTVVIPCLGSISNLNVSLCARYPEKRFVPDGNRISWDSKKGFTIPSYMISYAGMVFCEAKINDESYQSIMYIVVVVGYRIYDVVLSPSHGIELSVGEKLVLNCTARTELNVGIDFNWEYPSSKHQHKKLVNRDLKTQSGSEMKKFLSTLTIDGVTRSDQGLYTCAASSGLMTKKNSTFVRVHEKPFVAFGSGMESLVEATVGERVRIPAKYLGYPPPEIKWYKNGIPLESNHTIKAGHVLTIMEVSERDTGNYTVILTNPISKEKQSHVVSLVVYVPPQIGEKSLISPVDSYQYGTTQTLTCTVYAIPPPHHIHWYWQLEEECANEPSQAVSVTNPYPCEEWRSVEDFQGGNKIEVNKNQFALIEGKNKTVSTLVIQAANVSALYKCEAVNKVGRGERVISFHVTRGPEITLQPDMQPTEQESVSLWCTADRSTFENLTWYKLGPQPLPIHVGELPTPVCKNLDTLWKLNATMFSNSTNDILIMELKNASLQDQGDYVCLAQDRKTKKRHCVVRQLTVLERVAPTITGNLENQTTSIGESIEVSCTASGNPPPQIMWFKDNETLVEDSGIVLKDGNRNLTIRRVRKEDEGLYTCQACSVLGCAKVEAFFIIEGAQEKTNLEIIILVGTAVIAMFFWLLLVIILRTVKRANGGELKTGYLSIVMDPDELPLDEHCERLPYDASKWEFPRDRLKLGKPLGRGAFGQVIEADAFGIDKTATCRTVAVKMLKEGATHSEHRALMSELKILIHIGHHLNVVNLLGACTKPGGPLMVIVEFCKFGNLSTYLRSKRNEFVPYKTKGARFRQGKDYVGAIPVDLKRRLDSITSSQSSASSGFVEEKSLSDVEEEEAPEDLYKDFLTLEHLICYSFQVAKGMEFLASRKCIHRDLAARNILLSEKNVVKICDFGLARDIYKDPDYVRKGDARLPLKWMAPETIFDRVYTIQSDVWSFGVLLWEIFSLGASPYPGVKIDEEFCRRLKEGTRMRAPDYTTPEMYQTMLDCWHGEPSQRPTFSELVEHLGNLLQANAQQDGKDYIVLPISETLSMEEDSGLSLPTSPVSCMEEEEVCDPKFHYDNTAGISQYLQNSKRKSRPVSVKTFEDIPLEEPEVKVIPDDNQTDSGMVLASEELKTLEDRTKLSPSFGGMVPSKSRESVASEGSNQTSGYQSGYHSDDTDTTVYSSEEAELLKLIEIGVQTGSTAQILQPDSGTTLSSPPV

For `O=C(NN=Cc1cccc(O)c1)c1ccc2[nH]c(-c3ccc(Cl)cc3)nc2c1` [8p, 2-(4-Chlorophenyl)-N'-(3-hydroxybenzylidene)-1H-benzo[d]imidazole-5-carbohydrazide], the inhibition at 10 µM against VEGFR-2 is 22.3 ± 0.86%; in experiment [1] (setting [2]), 25.4%; in experiment [1] (setting [3]), 25.4%; in the experiment with COLO 205, 34.6%; in the experiment on DU-145, less than 5%; in the experiment with EKVX it was 7.59%. The inhibition at 10 µM with HOP-92 came to 6.79%; with KM12, 62.7%; in the experiment on MDA-MB-468, 65.8%; with NCI-H460 it was 56.6%; with NCI-H522 it was 55.8%; in the experiment on SNB-75, 7.89%. Also, in the experiment on U251, the inhibition at 10 µM was determined as 75.5%.
In the case of `O=C(NN=Cc1cccc(O)c1)c1ccc2[nH]c(-c3ccccc3)nc2c1` [8b, N'-(3-Hydroxybenzylidene)-2-phenyl-1H-benzo[d]imidazole-5-carbohydrazide], the inhibition at 10 µM is 23.8 ± 1.47% against VEGFR-2; 8.49% in experiment [1] (setting [2]); 8.49% in experiment [1] (setting [3]); less than 5% with COLO 205; less than 5% in the experiment with DU-145; 13.8% in the experiment on EKVX. Also, the inhibition at 10 µM is less than 5% in the experiment with HOP-92; 19.8% with KM12; 18.9% with MDA-MB-468; less than 5% with NCI-H460; 38.1% in the experiment on NCI-H522; 6.56% in the experiment on SNB-75. The inhibition at 10 µM in the experiment with U251 was less than 5%.
In the case of `COc1ccc(OC)c(C=NNC(=O)c2ccc3[nH]c(-c4ccc(Cl)cc4)nc3c2)c1` [8t, 2-(4-Chlorophenyl)-N'-(2,5-dimethoxybenzylidene)-1H-benzo[d]imidazole-5-carbohydrazide], the inhibition at 10 µM against VEGFR-2 amounted to 34 ± 2.57%; in [1] (setting [2]) it was 33.5%; in [1] (setting [3]), 33.5%; in the experiment on COLO 205 it was 18.3%; in the experiment on DU-145, 52%; in the experiment with EKVX, 42.5%. The inhibition at 10 µM was 36.6% in the experiment on HOP-92; 23.3% with KM12; 30.4% in the experiment on MDA-MB-468; 17.5% in the experiment with NCI-H460; 40.9% with NCI-H522; 27.2% in the experiment with SNB-75. Besides, in the experiment on U251, the inhibition at 10 µM is 25.7%.
In the case of `COc1ccc(-c2nc3cc(C(=O)NN=Cc4cccc(O)c4)ccc3[nH]2)cc1` [8i, N'-(3-Hydroxybenzylidene)-2-(4-methoxyphenyl)-1H-benzo[d]imidazole-5-carbohydrazide], the inhibition at 10 µM against VEGFR-2 is 45.2 ± 2.22%; in experiment [1] (setting [2]), 33.1%; in experiment [1] (setting [3]), 33.1%; in the experiment with COLO 205 it was 32.4%; in the experiment on DU-145 it was 14%; with EKVX it was 23.4%. For the same compound, the inhibition at 10 µM stood at 27% in the experiment with HOP-92; 38.7% in the experiment on KM12; 54.6% in the experiment on MDA-MB-468; 5.05% with NCI-H460; 43.4% with NCI-H522; 17.8% with SNB-75. In addition, the inhibition at 10 µM in the experiment on U251 stood at 32.1%.
For the compound `COc1ccc(-c2nc3cc(C(=O)NN=Cc4cc(OC)ccc4OC)ccc3[nH]2)cc1` [8m, N'-(2,5-Dimethoxybenzylidene)-2-(4-methoxyphenyl)-1H-benzo[d]imidazole-5-carbohydrazide], the inhibition at 10 µM on VEGFR-2 was 6.67 ± 0.08%; in experiment [1] (setting [2]), 10.9%; in [1] (setting [3]), 10.9%; with COLO 205 it was less than 5%; in the experiment on DU-145, less than 5%; in the experiment on EKVX it was 10.6%. For the same compound, the inhibition at 10 µM is less than 5% in the experiment with HOP-92; 11.7% with KM12; 16.2% in the experiment with MDA-MB-468; less than 5% in the experiment with NCI-H460; 21.3% in the experiment on NCI-H522; less than 5% in the experiment on SNB-75. Further, the inhibition at 10 µM in the experiment on U251 worked out at 9.71%.
On to `COc1ccc(C=NNC(=O)c2ccc3[nH]c(-c4ccccc4)nc3c2)cc1O` [8e, N'-(3-Hydroxy-4-methoxybenzylidene)-2-phenyl-1H-benzo[d]imidazole-5-carbohydrazide], for which the inhibition at 10 µM on VEGFR-2 is 36.4 ± 1.91%; in experiment [1] (setting [2]) it was 16.8%; in experiment [1] (setting [3]), 16.8%; in the experiment with COLO 205, 35.4%; with DU-145, less than 5%; in the experiment on EKVX, 19.2%. The inhibition at 10 µM in the experiment on HOP-92 was 6.3%; with KM12 it was 21.9%; in the experiment with MDA-MB-468, 7.65%; in the experiment on NCI-H460, less than 5%; in the experiment with NCI-H522, 29.4%; in the experiment with SNB-75 it was less than 5%. Besides, the inhibition at 10 µM in the experiment on U251 was 14.6%.
In the case of `COc1cccc(C=NNC(=O)c2ccc3[nH]c(-c4ccccc4)nc3c2)c1` [8c, N'-(3-Methoxybenzylidene)-2-phenyl-1H-benzo[d]imidazole-5-carbohydrazide], the inhibition at 10 µM against VEGFR-2 turned out to be 18.5 ± 0.95%; in [1] (setting [2]) it was 20.7%; in experiment [1] (setting [3]), 20.7%; in the experiment on COLO 205, 32.6%; in the experiment on DU-145, 18.4%; with EKVX, 41.8%. Besides, the inhibition at 10 µM in the experiment on HOP-92 was less than 5%; in the experiment with KM12, 26%; in the experiment with MDA-MB-468 it was 22.7%; with NCI-H460 it was 13.1%; with NCI-H522, 26%; in the experiment with SNB-75 it was 11%. The inhibition at 10 µM with U251 came out at 14.3%.
